Test results taken from patent US12704520B2, “Melanogenesis detection method using FAM86A” (Research & Business Foundation Sungkyunkwan University, priority 2019, dated 2026).
Each block holds one substance with its values, some of them ahead of it.

Key:
FAM86A (NM_201400.4) = experiment: shRNA mean knockdown level of FAM86A (Table 1); assay type: cell-based; settings: Homo sapiens FAM86A, pLKO.1 vector
FAM86 (NM_027446.2) = experiment: shRNA mean knockdown level of FAM86 (Table 1); assay type: cell-based; settings: Mus musculus FAM86, pLKO.1 vector
B16F10 cells = experiment: Melanogenesis induced by α-MSH (melanin content assay); assay type: cell-based, mouse; settings: α-MSH 100 nM, 48 hours
protein FAM86A = experiment: Western blotting of protein FAM86A after α-MSH treatment; assay type: cell-based, mouse; settings: B16F10 cells, α-MSH 100 nM, 48 hours
Procedure: The B16F10 cells cultured in Example 1 were seeded in 6-well plates at a density of 5×10^4 cells per well, grown for 24 hours, and then treated with α-MSH at 100 nM. The cells were incubated in an incubator under conditions of 37° C. and 5% CO2 for 48 hours, and washed with PBS twice. Subsequently, PBS was completely removed, and then 200 μL of RIPA buffer, which is a tissue lysis and staining reagent, was added to each plate, followed by harvesting cells with a scraper. Afterward, a BCA assay was conducted to quantify proteins, and electrophoresis was performed using 10% SDS-PAGE. The protein in the resulting SDS-PAGE gel was transferred onto a PVDF membrane, and the resulting PVDF membrane onto which the protein transfer had been completed was blocked in TBS-T (in 100 mM NaCl, 10 mM Tris, 0.1% (v/v) Tween-20, pH 7.4 (PBST) containing 3% BSA) at room temperature. After washing three times with TBS-T for 10 minutes, a primary antibody in 3% BSA dissolved in TBS-T was treated for 1 hour, and then sufficiently washed with TBS-T. In addition, a secondary antibody for 1 hour, and washed three times with PBS-T for 10 minutes each. Subsequently, the amount and location of a specific protein were confirmed using an ECL detection system. […]

[1] = tested on: tyrosinase, TYRP-1, TYRP-2, MITF and FAM86A genes; experiment: Real-time PCR of melanogenesis-associated genes and FAM86A after α-MSH treatment; assay type: cell-based, mouse; settings: B16F10 cells, α-MSH 100 nM, 48 hours
Procedure: The B16F10 cells cultured in Example 1 were seeded in 6-well plates at a density of 5×10^4 cells per well, grown for 24 hours, and then treated with α-MSH at 100 nM. The cells were incubated in an incubator under conditions of 37° C. and 5% CO2 for 48 hours. After 48 hours of incubation, the medium was completely removed, the cells were decomposed with TRIzol and neutralized using BCP. The neutralized liquid was treated with isopropanol to precipitate mRNA. Subsequently, only the precipitated mRNA was collected using a centrifuge, and used for the experiment. Intracellular mRNA was synthesized into cDNA using a cDNA kit, and the expression levels of tyrosinase, TYRP-1, TYRP-2, MITF and FAM86A genes, which are important for melanogenesis, were determined by PCR.

Substance: SEQ ID NO: 13: FAM86A shRNA (Homo sapiens, NM_201400.4), pLKO.1 vector, target sequence SEQ ID NO: 23 (DNA CCGGGATGTTGTCATTGCAGCAGATCTCGAGATCTGCTGCAATGACAACATCTTTTTG)
Mean Knock down level (FAM86A (NM_201400.4)): 0.79

Substance: SEQ ID NO: 16: FAM86 shRNA (Mus musculus, NM_027446.2), pLKO.1 vector, target sequence SEQ ID NO: 26 (DNA CCGGGAGCATTCAGCCATCGTAATCCTCGAGGATTACGATGGCTGAATGCTCTTTTTG)
Mean Knock down level (FAM86 (NM_027446.2)): 0.56

Substance: SEQ ID NO: 15: FAM86A shRNA (Homo sapiens, NM_201400.4), pLKO.1 vector, target sequence SEQ ID NO: 25 (DNA CCGGGCAGACATCACTGCCAAGTTACTCGAGTAACTTGGCAGTGATGTCTGCTTTTTG)
Mean Knock down level (FAM86A (NM_201400.4)): 0.6

expression level of FAM86A gene [1]: decreased
expression level of MITF gene [1]: significantly increased
expression level of TYRP-1 gene [1]: significantly increased
expression level of TYRP-2 gene [1]: significantly increased
expression level of tyrosinase gene [1]: significantly increased
Substance: Ac-Ser-Tyr-Ser-Met-Glu-His-Phe-Arg-Trp-Gly-Lys-Pro-Val-NH2 [α-MSH]
melanogenesis (B16F10 cells): increased
expression level of the protein FAM86A (protein FAM86A): decreases

Substance: SEQ ID NO: 11: FAM86A shRNA (Homo sapiens, NM_201400.4), pLKO.1 vector, target sequence SEQ ID NO: 21 (DNA CCGGGCAGAAACTGTTTCCCTACGACTCGAGTCGTAGGGAAACAGTTTCTGCTTTTTG)
Mean Knock down level (FAM86A (NM_201400.4)): 0.93

Substance: SEQ ID NO: 14: FAM86A shRNA (Homo sapiens, NM_201400.4), pLKO.1 vector, target sequence SEQ ID NO: 24 (DNA CCGGGCCAGCAGTTCTGGTTCTTAACTCGAGTTAAGAACCAGAACTGCTGGCTTTTTG)
Mean Knock down level (FAM86A (NM_201400.4)): 0.77

Substance: SEQ ID NO: 12: FAM86A shRNA (Homo sapiens, NM_201400.4), pLKO.1 vector, target sequence SEQ ID NO: 22 (DNA CCGGCGAGGGAATGTCCTTCTCAATCTCGAGATTGAGAAGGACATTCCCTCGTTTTTG)
Mean Knock down level (FAM86A (NM_201400.4)): 0.84
